US10201580B2, “Methods of feeding animals liquid feed with soluble fiber and sugar alcohol” (PURINA ANIMAL NUTRITION LLC, priority 2004, dated 2019)

Assays:
[1] = Further trial, calf milk replacer without psyllium, with or without sorbitol: weight gain, CMR consumption, starter intake, feed:gain; type: in vivo, Holstein bull calves; details: 6 g per day of sorbitol
Excerpt: (§1) A further trial was ran to determine what effect sorbitol without a dietary fiber would have on calves fed an intensified diet of calf milk replacer. Forty-six three to ten day old Holstein bull calves weighing approximately 90 to 100 pounds were fed an intensified diet of calf milk replacer. Twenty-four calves were fed a calf milk replacer without psyllium and without sorbitol and twenty-two calves were fed calf milk replacer without psyllium but with sorbitol. […] were fed 6 grams each per day of sorbitol. Data for parameters presented in the Tables above was analyzed using the general linear model (GLM) statistical procedure of SAS™. Statistical analysis software for a randomized complete block design that included both the particular feed regimen and the week of the test period in the model statement. The SAS™ statistical analysis software is available from SAS Institute, Inc. of Cary, N.C. Additionally, all data was analyzed to determine the mean of the data for each variable under consideration during the collection period for the particular data. Additionally, the PDiff function of the GLM statistical procedure was used to characterize the mean values of the data by providing for comparisons between mean data values for the calves of different treatments for particular test parameters or variables.

[2] = system: Holstein bull calves; assay: Further trial, calf milk replacer without psyllium, with or without sorbitol: scour score and scour days; type: in vivo; details: 6 g of sorbitol per day
Excerpt: as §1

[3] = system: Holstein bull calves; assay: Further trial, calf milk replacer without psyllium, with or without sorbitol: respiratory scores; type: in vivo; details: 6 g per day of sorbitol; no psyllium
Excerpt: as §1

[4] = system: Holstein bull calves; assay: Further trial, calf milk replacer without psyllium, with or without sorbitol: weaning scores; type: in vivo; details: 6 g per day of sorbitol; no psyllium
Excerpt: as §1

OC[C@@H](O)[C@@H](O)[C@H](O)[C@@H](O)CO [sorbitol]
difference in average feed:gain (feed efficiency) vs calves fed no sorbitol [1]: no statistically significant difference | difference in calf milk replacer consumption vs calves fed no sorbitol [1]: no statistically significant difference | difference in starter feed intake vs calves fed no sorbitol [1]: no statistically significant difference | difference in total weight gain vs calves fed no sorbitol [1]: no statistically significant difference | difference in scour score vs calves fed no sorbitol [2]: no statistically significant different | difference in scoured days vs calves fed no sorbitol [2]: no statistically significant different | difference in respiratory scores vs calves not fed any sorbitol [3]: no statistically significant difference | difference in weaning scores vs calves not fed any sorbitol [4]: no statistically significant difference
